Our source for the IC50 values is patent publication US8420657B2 (Novartis AG, priority 2008, dated 2013).

Bounds are passed on as bounds.

Assay [1] concerns JAK2-dependent nuclear translocation of STAT5-GFP in U-2 OS osteosarcoma cells. Briefly: STAT5 nuclear translocation assay (Cellomics), rhEpo stimulated U-2 OS STAT5-GFP cells. The conditions noted are these: Homo sapiens, U2OS; STAT5 translocation pathway. The class given is cell-based. The text has this: The medium-throughput (96-well format) cellular automated fluorescence microscopy Cellomics assay can be routinely used to assess the functional activation of Janus Kinases (JAKs), based on the nuclear translocation of their substrate, Signal Transducer and Activator of Transcription (STAT). Nuclear translocation can be monitored either in HT1080 fibrosarcoma cells stably transfected with STAT1 fused to Green Fluorescence Protein (GFP) or in U-2 OS osteosarcoma cells stably transfected with STAT5 fused to Green Fluorescence Protein (GFP). Stimulation of HT1080 cells with interferon-γ (IFN-γ) results in JAK1/JAK2-dependent nuclear translocation of STAT1-GFP, whereas stimulation of U-2 OS cells with recombinant human erythropoietin (rhEpo) results in JAK2-dependent nuclear translocation of STAT5-GFP, both of which can be quantified using the Cellomics Cyto/NucTrans software package. This assay may be used to provide an assessment of the nuclear-cytoplasmic differential (NCD) of STAT-GFP using Hoechst dye to define the boundaries of the nucleus.
U-2 OS osteosarcoma cells may be obtained from ATCC and can be cultured in standard RPMI medium supplemented with 10% FCS and 2 mM L-glutamine. Cells can be stably transfected with STAT5a-GFP using Lipofectamine following the manufacturers' protocol. 24 hours after transfection the medium can be replaced and selected in 400 μg/ml Geneticin. Subsequently, cells can be stably transfected with EpoR using Lipofectamine following the manufacturers' protocol. 24 hours after transfection the medium can be replaced and cells selected in 100 μg/ml Hygromycin B.
Compounds can be dissolved in DMSO to a final stock concentration of 10 mM and stored as aliquots at 4° C. Compounds may be pre-diluted in 100% DMSO at 10 mM, 3 mM 1 mM, 0.3 mM, 0.1 mM, 0.03 mM, 0.01 mM and 0.003 mM. Subsequently, compounds may be diluted in medium and added in 50 μl to the cells. The final compound concentrations tested may be 10 μM, 3 μM 1 μM, 0.3 μM, 0.1 μM, 0.03 μM, 0.01 μM and 0.003 μM and the final DMSO concentration can be 0.1%.
U-2 OS may be seeded at a cell density of 12,000 cells per well in clear-bottom black 96-well Packard View-Plates™. The following day, medium can be removed and replaced with medium containing either the vehicle (DMSO) or increasing concentrations of test compounds for 30 minutes at 37° C. Cells can then be stimulated for 1 hour by adding 10 μl per well of 50 U/ml rhEpo to obtain 5 U/ml of rhEpo as the final concentration. Following treatments, cells can fixed and processed as described above.
The plates can be read on a Cellomics® ArrayscanII automated fluorescence microscope plate reader equipped with a Mercury-Xenon white light illumination source and a Zeiss Axiovert inverted microscope, using the XF100 dichroic/emission filter cube and matching excitation filters, 10× magnification, and a 0.3 numerical aperture objective. Image acquisition and analysis can be performed using a customized protocol based on the ‘NuclearTranslocation’ Bioapplication. For each well, multiple images (fields) can be acquired until a minimum of 1000 cells are counted using two 2 channels: Channel 1 (Hoechst)=focus+nuclear mask, Channel 2 (GFP)=signal quantification in mask areas as outlined below. Nuclei may be first identified based on the Hoechst staining and a mask generated for each nucleus that then serves as a template to generate a circle (eroded inwards by 1 pixel) and a 3 pixel-wide collar-like ring (off-set outwards by 1 pixel), in which the nuclear and cytoplasmic intensity of GFP, respectively, are quantified in the corresponding channel. High content analysis yields numerous measurements per cell and the GFP intensity differential between the nuclear and the cytoplasmic masks may be chosen as a measure of sub-cellular STAT-GFP relocation. The resulting values may be averaged for all cells in the well to return a single measurement plus standard deviation. […]

A further assay has as its target T1, GST-JAK2(808-1132) (Homo sapiens, UniProt O60674).
T1 construct: GST-JAK2(808-1132); purchased Invitrogen (Carlsbad, USA) #4288
Briefly: JAK2 kinase assay (Caliper mobility shift, LabChip 3000). The class given is biochemical. Summed up:
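Recombinant GST-JAK2(808-1132) kinase domain with FITC-labelled JAK3tide peptide substrate and ATP; 60 min at 30 °C, EDTA stop. Substrate/product ratio read by microfluidic mobility shift; compounds at 8 final concentrations, 10 to 0.003 μM.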

T1 sequence (O60674 808-1132): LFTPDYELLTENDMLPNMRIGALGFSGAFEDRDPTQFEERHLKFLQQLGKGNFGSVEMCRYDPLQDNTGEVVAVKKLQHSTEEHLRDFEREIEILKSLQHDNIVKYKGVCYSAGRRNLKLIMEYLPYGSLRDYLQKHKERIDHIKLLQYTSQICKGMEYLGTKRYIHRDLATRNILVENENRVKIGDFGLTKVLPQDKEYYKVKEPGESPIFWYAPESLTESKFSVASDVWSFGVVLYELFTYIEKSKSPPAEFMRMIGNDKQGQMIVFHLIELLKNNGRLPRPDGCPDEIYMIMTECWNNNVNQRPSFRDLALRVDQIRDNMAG

The IC50 is the concentration that inhibits the measured activity by half. Consider `CN(C)CCN1CCN(Cc2cc(Nc3ncc4ccn(-c5cc(F)c(CN6CCOCC6)c(F)c5)c4n3)ccn2)CC1` [Example 396, [7-(3,5-Difluoro-4-morpholin-4-ylmethyl-phenyl)-7H-pyrrolo[2,3-d]pyrimidin-2-yl]-{2-[4-(2-dimethylamino-ethyl)-piperazin-1-ylmethyl]-pyridin-4-yl}-amine], for which the half-inhibitory concentration (IC50) in assay [1] was 147 nM; on GST-JAK2(808-1132), ≤ 3 nM.

`CN1CCOC[C@@H]1c1ccc(Nc2ncc3ccn(-c4cc(F)c(CN5CCOCC5)c(F)c4)c3n2)cc1` [Example 509, [7-(3,5-Difluoro-4-morpholin-4-ylmethyl-phenyl)-7H-pyrrolo[2,3-d]pyrimidin-2-yl]-[4-((S)-4-methyl-morpholin-3-yl)-phenyl]-amine]: the 50% inhibitory concentration (IC50) in assay [1] was 43.1 nM; on GST-JAK2(808-1132), < 3 nM.

As for `Fc1cc(-n2ccc3cnc(Nc4ccc5c(c4)C4CCC5N4)nc32)cc(F)c1CN1CCOCC1` (stereo not drawn) [Example 424, [7-(3,5-Difluoro-4-morpholin-4-ylmethyl-phenyl)-7H-pyrrolo[2,3-d]pyrimidin-2-yl]-(1,2,3 4-tetrahydro-1,4-epiazano-naphthalen-6-yl)-amine], the half-maximal inhibitory concentration (IC50) is 9 nM in assay [1] and ≤ 3 nM at GST-JAK2(808-1132).

Turning to `Cc1ccc(Nc2ncc3ccn(-c4cc(F)c(CN5CCOCC5)c(F)c4)c3n2)cc1CN1CCC(O)C1` (racemic) [Example 411, 1-{5-[7-(3,5-Difluoro-4-morpholin-4-ylmethyl-phenyl)-7H-pyrrolo[2,3-d]pyrimidin-2-ylamino]-2-methyl-benzyl}-pyrrolidin-3-ol], the results for the concentration for half-maximal inhibition (IC50) (in assay [1]; on GST-JAK2(808-1132)) were 2.6 nM and ≤ 3 nM, respectively.

`Cc1ccc(Nc2ncc3ccn(-c4cc(F)c(CN5CCOCC5)c(F)c4)c3n2)cc1C(=O)N1CCN(C)CC1` [Example 451, {5-[7-(3,5-Difluoro-4-morpholin-4-ylmethyl-phenyl)-7H-pyrrolo[2,3-d]pyrimidin-2-ylamino]-2-methyl-phenyl}-(4-methyl-piperazin-1-yl)-methanone]: the IC50 in assay [1] is 24 nM; at GST-JAK2(808-1132) it was 3.8 nM.

In the case of `Fc1cc(-n2ccc3cnc(Nc4ccnc(CN5CCN(C6CC6)CC5)c4)nc32)cc(F)c1CN1CCOCC1` [Example 407, [2-(4-Cyclopropyl-piperazin-1-ylmethyl)-pyridin-4-yl]-[7-(3,5-difluoro-4-morpholin-4-ylmethyl-phenyl)-7H-pyrrolo[2,3-d]pyrimidin-2-yl]-amine], the IC50 was 305 nM in assay [1] and ≤ 3 nM on GST-JAK2(808-1132).

On to `C[C@@H]1CN(Cc2ccc(Nc3ncc4ccn(-c5cc(F)c(CN6CCOCC6=O)c(F)c5)c4n3)cc2)C[C@H](C)N1` [Example 484, 4-(4-{2-[4-(cis-3,5-Dimethyl-piperazin-1-ylmethyl)-phenylamino]-pyrrolo[2,3-d]pyrimidin-7-yl}-2,6-difluoro-benzyl)-morpholin-3-one], for which the IC50 in assay [1] is 67 nM; on GST-JAK2(808-1132) it was ≤ 3 nM.

Turning to `Cc1ccc(Nc2ncc3ccn(-c4cc(F)c(CN5CCS(=O)(=O)CC5)c(F)c4)c3n2)cc1CN1CCN(C)CC1` [Example 421, {7-[4-(1,1-Dioxido-thiomorpholin-4-ylmethyl)-3,5-difluoro-phenyl]-7H-pyrrolo[2,3-d]pyrimidin-2-yl}-[4-methyl-3-(4-methyl-piperazin-1-ylmethyl)-phenyl]-amine], the results for the IC50 (in assay [1]; at GST-JAK2(808-1132)) were 2.7 nM and ≤ 3 nM, respectively.

Take `CN1CCN(Cc2ccc(Nc3ncc4ccn(-c5cc(F)c(CN6CCOCC6)c(F)c5)c4n3)cn2)CC1` [Example 472, [7-(3,5-Difluoro-4-morpholin-4-yl methyl-phenyl)-7H-pyrrolo[2,3-d]pyrimidin-2-yl]-[6-(4-methyl-piperazin-1-ylmethyl)-pyridin-3-yl]-amine]: the concentration for half-maximal inhibition (IC50) in assay [1] amounted to 92 nM; on GST-JAK2(808-1132), 3.6 nM.

As for `Fc1cc(-n2ccc3cnc(Nc4ccc5c(c4)NCC5)nc32)cc(F)c1CN1CCOCC1` [Example 431, [7-(3,5-Difluoro-4-morpholin-4-ylmethyl-phenyl)-7H-pyrrolo[2,3-d]pyrimidin-2-yl]-(2,3-dihydro-1H-indol-6-yl)-amine], the concentration for half-maximal inhibition (IC50) in assay [1] was determined as 23.5 nM; on GST-JAK2(808-1132), 3.2 nM.

On to `Cc1ccc(Nc2ncc3ccn(-c4cc(F)c(CN5CCOCC5)c(F)c4)c3n2)cc1CN1CCN(CCN(C)C)C(=O)C1` [Example 410, 4-{5-[7-(3,5-Difluoro-4-morpholin-4-ylmethyl-phenyl)-7H-pyrrolo[2,3-d]pyrimidin-2-ylamino]-2-methyl-benzyl}-1-(2-dimethylamino-ethyl)-piperazin-2-one], for which the values for the half-maximal inhibitory concentration (IC50) (in assay [1]; at GST-JAK2(808-1132)) were 8.3 nM and ≤ 3 nM, respectively.

On to `Cc1ccc(Nc2ncc3ccn(-c4cc(F)c(CN5CCOCC5)c(F)c4)c3n2)cc1Cn1cnnc1` [Example 414, [7-(3,5-Difluoro-4-morpholin-4-ylmethyl-phenyl)-7H-pyrrolo[2,3-d]pyrimidin-2-yl]-(4-methyl-3-[1,2,4]triazol-4-ylmethyl-phenyl)-amine], for which the IC50 in assay [1] is 4.2 nM; on GST-JAK2(808-1132) it was ≤ 3 nM.

Take `C[C@@H]1CN(c2ncc(Nc3ncc4ccn(-c5cc(F)c(CN6CCOCC6)c(F)c5)c4n3)cc2C#N)C[C@H](C)N1` [Example 490, 5-[7-(3,5-Difluoro-4-morpholin-4-ylmethyl-phenyl)-7H-pyrrolo[2,3-d]pyrimidin-2-ylamino]-2-(cis-3,5-dimethyl-piperazin-1-yl)-nicotinonitrile]: the IC50 in assay [1] worked out at 14 nM; on GST-JAK2(808-1132), 3.4 nM.

As for `Fc1cc(-n2ccc3cnc(Nc4ccnc(OCC5CCNCC5)c4)nc32)cc(F)c1CN1CCOCC1` [Example 392, [7-(3,5-Difluoro-4-morpholin-4-ylmethyl-phenyl)-7H-pyrrolo[2,3-d]pyrimidin-2-yl]-[2-(piperidin-4-ylmethoxy)-pyridin-4-yl]-amine], the IC50 in assay [1] was 68 nM; at GST-JAK2(808-1132) it was ≤ 3 nM.

On to `Cc1cc(Nc2ncc3ccn(-c4cc(F)c(CN5CCOCC5)c(F)c4)c3n2)cnc1N1C[C@@H](C)N[C@@H](C)C1` [Example 510, [7-(3,5-Difluoro-4-morpholin-4-ylmethyl-phenyl)-7H-pyrrolo[2,3-d]pyrimidin-2-yl]-[6-(cis-3,5-dimethyl-piperazin-1-yl)-5-methyl-pyridin-3-yl]-amine], for which the IC50 in assay [1] is 1 nM; on GST-JAK2(808-1132), ≤ 3 nM.

Take `Cc1ccc(Nc2ncc3ccn(-c4ccc(S(=O)(=O)NC(C)(C)C)cc4)c3n2)cc1CN1CCN(C)CC1` [Example 353, N-tert-Butyl-4-{2-[4-methyl-3-(4-methyl-piperazin-1-ylmethyl)-phenylamino]-pyrrolo[2,3-d]pyrimidin-7-yl}-benzenesulfonamide]: the IC50 in assay [1] was 17 nM; at GST-JAK2(808-1132), 4.9 nM.

Take `C[C@@H]1CN(c2ncc(Nc3ncc4ccn(-c5cc(F)c(CN6CCOCC6)c(F)c5)c4n3)cc2Cl)C[C@H](C)N1` [Example 489, [5-Chloro-6-(cis-3,5-dimethyl-piperazin-1-yl)-pyridin-3-yl]-[7-(3,5-difluoro-4-morpholin-4-ylmethyl-phenyl)-7H-pyrrolo[2,3-d]pyrimidin-2-yl]-amine]: the figures for the half-inhibitory concentration (IC50) (in assay [1]; at GST-JAK2(808-1132)) were 12 nM and 0.7 nM, respectively.

Take `Cc1ccc(Nc2ncc3ccn(-c4ccc(S(=O)(=O)NC(C)(C)C)cc4)c3n2)cc1CN1CCNCC1` [Example 376, N-tert-Butyl-4-[2-(4-methyl-3-piperazin-1-ylmethyl-phenylamino)-pyrrolo[2,3-d]pyrimidin-7-yl]-benzenesulfonamide]: the IC50 in assay [1] was 67 nM; at GST-JAK2(808-1132), ≤ 3 nM.
